Test results: DBAASP
≈ marks a conversion by molar mass, not a printed value.

Legend:
Test in all cases: ≥ marks a high value that may be exact or a test limit, other limits are often not marked, values filed in µg/mL are converted to µM
[1] = tested on: Escherichia coli ATCC 25922
[2] = tested on: Staphylococcus aureus ATCC 25923
[3] = tested on: Pseudomonas aeruginosa ATCC 27853
[4] = tested on: Staphylococcus aureus ATCC 29213
[5] = tested on: Escherichia coli

Structure (SMILES) | MIC [1] [µM] | MIC [2] [µM] | also measured
CC[C@H](C)[C@H](NC(=O)[C@H](C)NC(=O)CNC(=O)[C@H](C)NC(=O)[C@H](CCCCN)NC(=O)[C@H](CO)NC(=O)[C@H](C)NC(=O)[C@H](CCSC)NC(=O)CN)C(=O)N[C@@H](C)C(=O)NCC(=O)N[C@@H](CCCCN)C(=O)N[C@H](C(=O)N[C@@H](C)C(=O)N[C@@H](CCCCN)C(=O)N[C@H](C(=O)N[C@@H](C)C(=O)N[C@@H](Cc1c[nH]c2ccccc12)C(=O)N[C@@H](CCCCN)C(=O)N[C@@H](C)C(=O)N[C@@H](CC(C)C)C(=O)NCC(=O)NCC(=O)N[C@@H](C)C(N)=O)C(C)C)[C@@H](C)CC [GMASKAGAIAGKIAKVAWKALGGA] | 12.5 (≈ 27.9 µg/mL) |  | 
CC[C@H](C)[C@H](NC(=O)[C@H](CCCN=C(N)N)NC(=O)[C@H](CCCCN)NC(=O)[C@H](CC(C)C)NC(=O)[C@H](CC(C)C)NC(=O)CN)C(=O)N[C@@H](CCCCN)C(=O)N[C@@H](CC(N)=O)C(=O)N[C@@H](CC(C)C)C(=O)N[C@@H](CC(C)C)C(N)=O [GLLKRIKNLL] | 18.8 (≈ 22 µg/mL) | 10.3 (≈ 12 µg/mL) | 
CC[C@H](C)[C@H](NC(=O)CNC(=O)[C@H](CCSC)NC(=O)[C@H](CCCCN)NC(=O)[C@H](C)NC(=O)[C@H](CC(C)C)NC(=O)[C@H](CCCCN)NC(=O)[C@H](CCC(=O)O)NC(=O)[C@H](CC(C)C)NC(=O)CNC(=O)[C@H](CCCCN)NC(=O)[C@H](CC(C)C)NC(=O)[C@@H](NC(=O)[C@H](CO)NC(=O)[C@H](CC(C)C)NC(=O)[C@H](C)N)[C@@H](C)CC)C(=O)N[C@@H](C)C(=O)N[C@@H](CC(C)C)C(=O)N[C@H](C(=O)N[C@@H](CC(N)=O)C(=O)N[C@H]1CSSC[C@@H](C(=O)O)NC(=O)[C@H](CCCCN)NC(=O)[C@H](CCCCN)NC(=O)[C@H]([C@@H](C)O)NC(=O)[C@H](C)NC(=O)[C@H](CCCCN)NC1=O)[C@@H](C)O [ALSILKGLEKLAKMGIALTNCKATKKC] | 28 (≈ 79.7 µg/mL) |  | 
C[C@H](NC(=O)[C@H](Cc1c[nH]c2ccccc12)NC(=O)[C@H](CCCN=C(N)N)NC(=O)[C@H](Cc1c[nH]c2ccccc12)NC(=O)[C@H](C)NC(=O)[C@H](CCCN=C(N)N)NC(=O)[C@@H](N)Cc1ccc(O)cc1)C(=O)N[C@@H](Cc1c[nH]c2ccccc12)C(=O)N[C@@H](CCCN=C(N)N)C(=O)N[C@@H](Cc1c[nH]c2ccccc12)C(=O)N[C@@H](CCCN=C(N)N)C(N)=O [YRAWRWAWRWR] | 5.91 (≈ 9.99 µg/mL) | 1.48 (≈ 2.5 µg/mL) | MIC [3]: 11.8 µM (≈ 20 µg/mL)
CC[C@H](C)[C@H](NC(=O)[C@@H](NC(=O)[C@H](CCCCN)NC(=O)[C@H](CC(C)C)NC(=O)[C@H](CC(C)C)NC(=O)CN)C(C)C)C(=O)N[C@@H](CCCCN)C(=O)N[C@H](C(=O)N[C@@H](CC(C)C)C(=O)N[C@@H](CC(C)C)C(N)=O)[C@@H](C)O [GLLKVIKTLL] | 2.73 (≈ 3 µg/mL) | 2.73 (≈ 3 µg/mL) | 
CC(C)C[C@H](NC(=O)[C@H](Cc1ccccc1)NC(=O)[C@@H]1CCCN1C(=O)[C@H](Cc1ccc(O)cc1)NC(=O)[C@H](Cc1c[nH]c2ccccc12)NC(=O)[C@H](Cc1ccc(O)cc1)NC(=O)[C@@H]1CCCN1C(=O)[C@H](Cc1ccccc1)NC(=O)[C@H](CCCN=C(N)N)NC(=O)[C@H](CCCN=C(N)N)NC(=O)[C@@H](N)C(C)C)C(=O)N[C@@H](CCCN=C(N)N)C(=O)N[C@@H](CCCN=C(N)N)C(N)=O [VRRFPYWYPFLRR] | 16 (≈ 29.7 µg/mL) |  | 
CC(=O)N[C@@H](CCCCN)C(=O)N[C@@H](CC(C)C)C(=O)N[C@@H](CC(C)C)C(=O)N[C@@H](CCCCN)C(=O)N1CCC[C@H]1C(=O)N[C@@H](CC(C)C)C(=O)N[C@@H](CCCCN)C(=O)N[C@@H](CCCCN)C(=O)N[C@@H](CC(C)C)C(=O)N[C@@H](CC(C)C)C(=O)N[C@@H](CCCCN)C(=O)N[C@@H](CC(C)C)C(=O)N[C@@H](CC(C)C)C(=O)N[C@@H](CCCCN)C(N)=O [KLLKPLKKLLKLLK] | 20 (≈ 34.3 µg/mL) |  | MIC [4]: 28.3 µM (≈ 48.6 µg/mL)
CC(C)C[C@H](NC(=O)[C@H](Cc1ccccc1)NC(=O)[C@@H]1CCCN1C(=O)[C@H](C)NC(=O)[C@H](C)NC(=O)[C@H](C)NC(=O)[C@@H]1CCCN1C(=O)[C@H](Cc1ccccc1)NC(=O)[C@H](CCCN=C(N)N)NC(=O)[C@H](CCCN=C(N)N)NC(=O)[C@@H](N)C(C)C)C(=O)N[C@@H](CCCN=C(N)N)C(=O)N[C@@H](CCCN=C(N)N)C(N)=O [VRRFPAAAPFLRR] | > 128 |  | 
CC(C)[C@H](NC(=O)[C@@H]1CCCN1C(=O)[C@@H](N)Cc1ccccc1)C(=O)N[C@H](C(=O)N[C@@H](Cc1c[nH]c2ccccc12)C(=O)N[C@@H](CCCN=C(N)N)C(=O)N[C@@H](Cc1c[nH]c2ccccc12)C(=O)N[C@@H](Cc1c[nH]c2ccccc12)C(=O)N[C@@H](CCCN=C(N)N)C(=O)N[C@@H](Cc1c[nH]c2ccccc12)C(=O)N[C@@H](Cc1c[nH]c2ccccc12)C(=O)N[C@@H](CCCN=C(N)N)C(=O)NCC(N)=O)[C@@H](C)O [FPVTWRWWRWWRG] | 11.3 (≈ 21.7 µg/mL) |  | 
CC[C@H](C)[C@H](NC(=O)[C@H](CCCN=C(N)N)NC(=O)[C@H](CCCCN)NC(=O)[C@H](CC(C)C)NC(=O)[C@H](CC(C)C)NC(=O)CN)C(=O)N[C@@H](CCCCN)C(=O)N[C@@H](CC(C)C)C(=O)N[C@@H](CC(C)C)C(=O)N[C@@H](CC(C)C)C(N)=O [GLLKRIKLLL] | 11.1 (≈ 13 µg/mL) | 6 (≈ 6.99 µg/mL) | 
CC[C@H](C)[C@H](NC(=O)[C@@H]1CCCN1C(=O)[C@H](CCCCN)NC(=O)[C@H](CC(C)C)NC(=O)[C@H](C)NC(=O)[C@@H](NC(=O)[C@@H](NC(=O)[C@H](CC(C)C)NC(=O)[C@@H](NC(=O)[C@H](CCCCN)NC(=O)[C@H](CCCCN)NC(=O)[C@H](C)NC(=O)[C@H](C)NC(=O)[C@H](CO)NC(=O)[C@@H](NC(=O)[C@H](CC(C)C)NC(=O)[C@H](CCCCN)NC(=O)[C@H](CCCCN)NC(=O)[C@H](CC(C)C)NC(=O)[C@H](Cc1ccccc1)NC(=O)[C@H](CCCCN)NC(=O)[C@H](CCCCN)NC(=O)[C@H](Cc1c[nH]c2ccccc12)NC(=O)[C@@H](N)CCCCN)[C@@H](C)O)C(C)C)[C@@H](C)O)[C@@H](C)O)C(=O)N[C@@H](CO)C(=O)N[C@@H](CO)C(=O)O [KWKKFLKKLTSAAKKVLTTALKPISS] |  |  | MIC [3]: 2 µM (≈ 5.83 µg/mL)
NC(=O)[C@H](Cc1c[nH]c2ccccc12)NC(=O)[C@H](CCCN=C(N)N)NC(=O)[C@H](Cc1c[nH]c2ccccc12)NC(=O)[C@H](CCCN=C(N)N)NC(=O)[C@H](Cc1c[nH]c2ccccc12)NC(=O)[C@@H](N)Cc1ccc(O)cc1 [YWRWRW] | 19 (≈ 20 µg/mL) | 9.5 (≈ 9.99 µg/mL) | MIC [3]: 47.5 µM (≈ 50 µg/mL)
CC[C@H](C)[C@H](NC(=O)[C@H](CC(=O)O)NC(=O)[C@H](CC(C)C)NC(=O)[C@@H](NC(=O)CN)C(C)C)C(=O)N[C@@H](CC(C)C)C(=O)N[C@@H](CCCCN)C(=O)NCC(=O)N[C@@H](C)C(=O)N[C@@H](C)C(=O)N[C@@H](CCCCN)C(=O)N[C@@H](CC(=O)O)C(=O)N[C@@H](CC(C)C)C(=O)N[C@@H](C)C(=O)NCC(=O)N[C@@H](Cc1cnc[nH]1)C(=O)O [GVLDILKGAAKDLAGH] | 10.1 (≈ 15.9 µg/mL) |  | MIC [4]: 40.5 µM (≈ 63.9 µg/mL)
CC[C@H](C)[C@H](NC(=O)[C@H](CCCN=C(N)N)NC(=O)[C@H](CCCCN)NC(=O)[C@H](CC(C)C)NC(=O)[C@H](CC(C)C)NC(=O)CN)C(N)=O [GLLKRI] | > 54.4 | > 54.4 | 
CC(C)C[C@H](NC(=O)[C@H](CCCCN)NC(=O)[C@H](CC(C)C)NC(=O)[C@H](CC(C)C)NC(=O)[C@H](CCCCN)NC(=O)[C@H](CCCCN)NC(=O)[C@H](CO)NC(=O)[C@H](CC(C)C)NC(=O)[C@H](CCCCN)NC(=O)[C@H](CC(C)C)NC(=O)[C@H](CC(C)C)NC(=O)[C@H](CCCCN)NC(=O)[C@H](CCCCN)NC(=O)[C@@H](N)CC(C)C)C(=O)N[C@@H](C)C(=O)NCC(=O)O [LKKLLKLSKKLLKLAG] | 2.5 (≈ 4.49 µg/mL) |  | MIC [4]: 10 µM (≈ 17.9 µg/mL)
CC(C)C[C@H](NC(=O)[C@H](C)NC(=O)[C@H](CCCCN)NC(=O)[C@H](C)NC(=O)[C@H](C)NC(=O)CNC(=O)[C@H](CCCCN)NC(=O)[C@H](CC(C)C)NC(=O)[C@H](CC(C)C)NC(=O)[C@H](CC(=O)O)NC(=O)[C@H](CCCCN)NC(=O)[C@H](Cc1c[nH]c2ccccc12)NC(=O)CN)C(=O)N[C@H](C(=O)N[C@@H](CCCCN)C(=O)N[C@H](C(=O)N[C@H](C(=O)N[C@@H](Cc1ccccc1)C(N)=O)C(C)C)[C@@H](C)O)C(C)C [GWKDLLKGAAKALVKTVF] | 3 (≈ 5.83 µg/mL) |  | 
CC[C@H](C)[C@H](NC(=O)CNC(=O)[C@H](CCCCN)NC(=O)[C@@H](NC(=O)[C@H](CC(C)C)NC(=O)[C@H](CO)NC(=O)CNC(=O)[C@H](CC(C)C)NC(=O)CNC(=O)[C@H](C)NC(=O)[C@H](CCCCN)NC(=O)[C@H](Cc1ccccc1)NC(=O)[C@@H](NC(=O)[C@H](CCC(=O)O)NC(=O)[C@H](CCCCN)NC(=O)[C@H](CC(C)C)NC(=O)CN)[C@@H](C)CC)C(C)C)C(=O)N[C@@H](C)C(=O)N[C@@H](C)C(=O)N[C@@H](Cc1cnc[nH]1)C(=O)N[C@H](C(=O)N[C@@H](C)C(=O)N[C@@H](CC(N)=O)C(N)=O)C(C)C [GLKEIFKAGLGSLVKGIAAHVAN] | 25 (≈ 57.3 µg/mL) | 200 (≈ 459 µg/mL) | 
C[C@H](NC(=O)[C@H](Cc1c[nH]c2ccccc12)NC(=O)[C@H](CCCN=C(N)N)NC(=O)[C@H](CCCN=C(N)N)NC(=O)[C@H](C)NC(=O)[C@H](CCCCN)NC(=O)[C@@H](N)Cc1ccc(O)cc1)C(=O)N[C@@H](Cc1c[nH]c2ccccc12)C(=O)N[C@@H](CCCN=C(N)N)C(=O)N[C@@H](Cc1c[nH]c2ccccc12)C(=O)N[C@@H](CCCCN)C(=O)O [YKARRWAWRWK] | 12.4 (≈ 20 µg/mL) | 12.4 (≈ 20 µg/mL) | MIC [3]: 31.1 µM (≈ 50 µg/mL)
CC(C)C[C@H](NC(=O)[C@H](CCCN=C(N)N)NC(=O)CNC(=O)CNC(=O)[C@@H](N)CCCN=C(N)N)C(=O)N[C@H]1CSSC[C@@H](C(=O)N[C@@H](CCC(=O)O)C(=O)O)NC(=O)[C@H](C(C)C)NC(=O)[C@@H]2CSSC[C@H](NC(=O)[C@H](Cc3ccc(O)cc3)NC1=O)C(=O)N[C@@H](CCCN=C(N)N)C(=O)N[C@@H](CCCN=C(N)N)C(=O)N[C@@H](CCCN=C(N)N)C(=O)N[C@@H](Cc1ccccc1)C(=O)N2 [RGGRLCYCRRRFCVCE] |  |  | MIC [5]: 0.303 µM (≈ 0.599 µg/mL)
